Experimental data from US20240424004A1, “COMBINATION OF TLR LIGANDS, COMPOUNDS LABELLING TUMORS FOR IMMUNE ATTACK, ANTI-CD40 ANTIBODIES AND INHIBITORS OF GLUTAMINE METABOLISM FOR TREATING CANCER” (priority 2021, published 2024).

Assays:
[1] = system: Panc02 cells; experiment: Example 5: bilateral Panc02 model, i.t. MBTA + s.c. DON in different dosages; type: in vivo, C57BL/6 mice; settings: with i.t. MBTA, DON s.c. 80 μg or 400 μg, days 1,9,17,25,33
Description: (§1) Subcutaneous transplantation: Mice were subcutaneously injected with 4×10^5 Panc02 cells in 0.1 ml DMEM or 4×10^5 B16-F10 cells in 0.1 ml RPMI 1640 medium without additives into pre-shaved groin (right or both right and left).
(§2) MBTA immunotherapy: 50 μl of the therapeutic mixture consisting of 0.5 mg R-848, HCl form+0.5 mg poly (I:C), 0.5 mg LTA and 0.4 mg anti-CD40/ml of 0.2 mM mannan-BAM in PBS was administered intratumorally on days 0, 1, 2, 8, 9, 10, 16, 17, 18, 24, 25, and 26. The combination of R-848, poly (I:C), LTA, mannan-BAM and anti-CD40 antibody is hereinafter referred to as ‘MBTA’. In the case of the bilateral Panc02 tumor model, MBTA therapy was always injected only into the right subcutaneous tumor.
(§3) Evaluation of treatment: Tumor sizes were measured every other day using a digital calliper. The formula V=(π/6)AB^2, A being the largest tumor size, B being the smallest tumor size, was used to calculate tumor volume.
(§4) The areas under the curves (AUC) were calculated to evaluate tumor growth. The obtained values were statistically evaluated by one-way ANOVA with unequal post hoc test. Kaplan-Meier survival curves were evaluated using the long-rank test. STATISTICA 12 software (StatSoft, Inc., Tulsa, OK, USA) was used for all statistical evaluations. Error bars represent standard error of the mean (SEM). […]

[2] = system: Panc02 cells; experiment: Example 7: bilateral Panc02 model, i.t. MBTA + i.p. DON, efficacy and side effects; type: in vivo; settings: DON 400 μg i.p., days 1,8,15,22,29, with i.t. MBTA
Description: as §1, §2, §3, §4

[3] = system: Panc02 cells; experiment: Example 6: bilateral Panc02 model, i.t. MBTA + DON i.t. (left tumor) versus i.p.; type: in vivo, C57BL/6 mice; settings: with MBTA in right tumor, days 1,8,15,22,29
Description: as §1, §2, §3, §4

[4] = system: Panc02 cells; experiment: Example 4: bilateral Panc02 model, i.t. MBTA + i.p. DON in two timing regimes; type: in vivo; settings: for prolongation of mice survival: FIG. 4C
Description: as §1, §2, §3
The areas under the curves (AUC) were calculated to evaluate tumor growth. The obtained values were statistically evaluated by one-way ANOVA with unequal post hoc test. Kaplan-Meier survival curves were evaluated using the long-rank test. STATISTICA 12 software (StatSoft, Inc., Tulsa, OK, USA) was used for all statistical evaluations. Error bars represent standard error of the mean (SEM).
To improve MBTA/DON combined therapy outcomes we tested the intraperitoneal administration of DON in combination with i.t. MBTA therapy. The total amount of DON (2 mg/mouse/therapy) was applied in two different regimes as further specified.
C57BL/6 mice were s.c. inoculated with Panc02 cells in both right and left flank. After 12 days, mice were randomized into four groups (n=6/group): Group treated with PBS applied in the right tumor; group treated with MBTA applied in the right tumor; group treated with MBTA applied in the right tumor, and DON applied i.p. (13 doses); group treated with MBTA applied in the right tumor, and DON applied i.p. (5 doses, red). MBTA (PBS in the control group) was applied in pulse regime on days 0, 1, 2, 8, 9, 10, 16, 17, 18, 24, 25, and 26. DON was administered i.p. on days 5, 13, 21, 29, 37 (400 μg) and 1, 3, 5, 7, 9, 11, 13 15 17 19 21, 23, 25 (154 μg), respectively.
FIG. 4A, B: Growth of right/left tumors. Statistical analysis was performed by calculating AUC (area under the curve) values using a one-way ANOVA test with Tukey's post hoc test (* p<0.05, **** p<0.001, ***** p<0.0005), FIG. 4 C: Survival analysis.

In the case of `[N-]=[N+]=CC(=O)CC[C@H](N)C(=O)O` [DON, 6-diazo-5-oxo-norleucine], the “reduction of tumor growth, compared to i.p. administration of DON (Example 4)” value ([1]; FIG. 5A, B) is reported as “less evident”, the “early deaths of treated mice” value ([1]; FIG. 5C) is reported as “No early deaths” and the “water and food consumption” value ([2]; FIG. 7D, E) is reported as “without any influence”. The “weight of treated mice” value ([2]; FIG. 7F) was “without any influence”, the “survival of treated mice” value ([3]; DON 400 μg i.p., FIG. 6C) was “significantly prolonged” and the “efficacy of the therapy” value ([3]; DON 400 μg i.t. in left tumor, FIG. 6) was “did not improve the efficacy”. For the same compound, the “early deaths of treated mice” value ([4]; DON i.p. with a sufficient interval between each application, with i.t. MBTA (summary of Examples 4 to 6)) was “did not observe any early deaths”, the “prolongation of mice survival” value ([4]; with i.t. MBTA, DON i.p. 154 μg, 13 doses, every other day) was “evident but not statistically significant” and the “prolongation of mice survival” value ([4]; with i.t. MBTA, DON i.p. 400 μg, 5 doses) was “evident but not statistically significant”. The “tolerability of regime / early death” value ([4]; with i.t. MBTA, DON i.p. every other day (154 μg, 13 doses), n=6/group) was “too aggressive and resulted in early death of three mice”.
